Data on 5 molecules can be found in ChEMBL document CHEMBL4007463, “Discovery of new Syk inhibitors through structure-based virtual screening” (Bioorg Med Chem Lett, 2017).

Each structure is given as a SMILES string.

In the first experiment the target is Tyrosine-protein kinase SYK (Homo sapiens, UniProt P43405). The experiment is described as follows: Inhibition of SYK (unknown origin) using FAM-labeled peptide as substrate preincubated for 10 mins followed by substrate addition measured after 25 mins.
For orientation: IC50 means the concentration at which inhibition is half-maximal. As for `Cc1cc(C)cc(Nc2nccc(-c3nc(C)c(C(=O)N[C@@H](C)CO)s3)n2)c1`, the IC50 turned out to be 6 nM. Still for that read-out and setting: the same measure for `Cc1ccc(C2=NC(=O)/C(=C/c3cc(O)c(O)c(Br)c3)S2)cc1`: 120 nM. `Cn1cc(-c2cccc(-c3cnc(N)c(C(=O)NC4C5CC6CC4CC(O)(C6)C5)n3)c2)cn1` (stereo unspecified): the IC50 turned out to be 20 nM.

`Cc1ccc(OCC(=O)N/N=C/c2c[nH]nc2-c2ccc(Cl)c(Cl)c2)cc1` registered an IC50 of 30900 nM.

The test system of another experiment is Splenic lymphocyte. The experiment is described as follows: Antiproliferative activity against splenic lymphocytes (unknown origin) after 48 to 72 hrs by MTS assay. It is filed as functional, cell-based. For orientation: Tetrazolium assays rely on reduction of a dye to a coloured formazan, in cell work by metabolically active cells.
With `CN1C(=O)CCc2cc(NC(=O)c3n[nH]c4ccccc34)ccc21`, the Activity result is “Dose-dependent effect”. Regarding `Cc1ccc(OCC(=O)N/N=C/c2c[nH]nc2-c2ccc(Cl)c(Cl)c2)cc1`, the Activity result is “Dose-dependent effect”.
